Measured values from publication PMC3620317, “Optimisation of Embryonic and Larval ECG Measurement in Zebrafish for Quantifying the Effect of QT Prolonging Drugs” (PLoS ONE, 2013).
Several values for one entry are separate records, joined by “and”; a condition that tells them apart may be missing. Equal entries are not always repeated.

How the values were obtained:
[1] = test system: 3 dpf zebrafish; experiment: Exclusion of motion artefact: myocardial contractility under excitation-contraction uncouplers; assay type: in vivo; conditions: for Effect on contraction of cardiomyocytes / myocardial contractility: drug added to embryo holding chamber
Experimental: Firstly, recordings were performed with and without cromakalim and secondly, comparing invasive (intracardial) and non-invasive surface recordings. Cromakalim was added to the embryo holding chamber and ECG signals were recorded before and after drug exposure (QTc values shown in Table S1). […] Therefore, as an independent approach we compared ECG signals from invasive and non-invasive electrode positioning. There was minimal difference between recordings taken invasively and non-invasively (n = 5; Fig. 2B, Table S2).

[2] = test system: 3 dpf zebrafish larvae; experiment: ECG recording in zebrafish larvae before and after drug treatment; conditions: for Effect on QTc interval (in words): 3 dpf zebrafish larvae, over the tested concentrations; for Mean QTc interval duration, After / Mean interval duration QT / Mean interval duration QTc / Mean interval duration RR: 3 dpf; for AV block: at particular concentrations and exposure times; for Effect on heart rate (ƒH): immobilising agents, MESAB at very high concentrations, tubocurarine at any tested concentration; for Mean interval duration QT / Mean interval duration QTc / Mean interval duration RR: n = 10
Experimental: For all experiments, except the anaesthetic and tubocurarine experiments, fish larvae were anaesthetised in ethyl-3 aminobenzoate methanesulfonate (0.3 mg/ml; Sigma) for 5–10 mins before transfer into 3 ml of embryo medium in the plate used for subsequent measurements. Once anaesthetised, one embryo was then transferred to the ECG recording plate (mini Petri dish with an unscented paraffin wax surface, containing 3 ml of fresh E3 embryo medium without MESAB). The embryo was positioned ventrally within a groove in the wax, and the tip (2 µm diameter) of a filled pre-pulled borosilicate glass micropipette (P84, World Precision Instruments) was positioned on the skin surface between the ventricle and atrium (no penetration) using micromanipulators (Narishige) and Inchworm step motors (Burleigh), viewed under a Nikon microscope (SMZ600). The micropipettes were filled with MicroFil (P85, World Precision Instruments) in 3 M potassium acetate solution (Sigma) and coloured with methylene blue (Sigma) to easier visualise the tips during recordings. A chloridised silver wire which carried the electrical signal to the amplifier was inserted into the micropipettes and a second reference electrode placed in the surrounding medium during recordings. The differential amplifier (NPI electronics) used for recording was operated in DC mode with the high pass filter set at 0.1 Hz. The raw ECG signals were digitised (PowerLab; ADI Instruments) and viewed using LabChart 7 (ADI Instruments).
Non-invasive recordings were taken by applying slight pressure over the surface of the heart using the tip of a glass capillary. Invasive recordings were taken by increasing the speed and also the distance moved by the step motor to puncture the skin over the heart. All of the recording equipment was housed on an air table within a grounded Faraday cage to minimise background noise. Experiments were performed at room temperature (21°C) except when otherwise stated. Temperature was controlled using a sensor placed in the recording plate and a homemade heating element (Cryocon 24 temperature controller). For optimisation experiments, recordings were taken for 5 mins. For the temperature experiments, embryos were initially acclimatised to each temperature for 30 mins before taking a recording of 5 mins. For drug treatments, ECG recordings were taken continuously after drug addition. A 5 mins segment before drug addition and a 15 minute segment where QT prolongation was first apparent by visual observation were selected for analysis.
All drug stocks were made using either DMSO or distilled water depending on solubility, then diluted using E3 embryo medium to make up the final concentrations for recording purposes with DMSO levels at 1%. ECG recordings were taken for 5 mins in 3 ml of embryo medium before addition of drug directly to the recording plate (1 ml) to produce the desired concentration by undergoing a 1 in 4 dilution.
Analysis of the digitised ECG signal was carried out using LabChart and the mean intervals for the ECG parameters R-R, QRS, QT and QTc were calculated. For drug treatments the percentage change in the corrected QT interval (QTc) before and after drug administration was compared. One way ANOVA analysis was then performed to determine statistical significance between differences observed.
Z factor scores were also calculated to determine the robustness of the ECG system as a screening tool, using the mean QTc percentage change before and after drug treatment for each individual fish. The values before drug treatment were standardised. The Z factor score was calculated using the following equation: Z = 1– [3×(σp+σn)/(µp - µn)],
where µp and σp represent mean and SD after treatment, while µn and σn represent mean and SD before treatment. Z factor scores fall into the following range: 1 = ideal, 0.5–1 = excellent, 0–0.5 = marginal, <0 = poor.

[3] = design: method as in earlier work; conditions: zebrafish larvae ref 56; cited from earlier work
[4] = tubocurarine 100 μM, continuous exposure
[5] = tubocurarine 400 μM, continuous exposure
[6] = MESAB 0.1 mg/ml, prior anaesthesia 5–10 minutes
[7] = MESAB 0.3 mg/ml, prior anaesthesia 5–10 minutes
[8] = MESAB 0.5 mg/ml, prior anaesthesia 5–10 minutes
[9] = MESAB 1 mg/ml, prior anaesthesia 5–10 minutes

CC(=O)C(C)=NO [BDM, 2,3-butanedione-monoxime]
Adverse effects on ECG and embryo survival [1]: adverse effects on the ECG and embryo survival | Effect on contraction of cardiomyocytes / myocardial contractility [1]: completely remove myocardial contractility

penicillin
Effect on QTc interval (in words) [2]: no effect on the QTc interval | Mean QTc interval duration, After ([2]; penicillin 0.1 µM, negative control, n = 8, before drug 0.497 s): 0.495 s | Mean QTc interval duration, After ([2]; penicillin 0.3 µM, negative control, n = 8, before drug 0.487 s): 0.492 s | Mean QTc interval duration, After ([2]; penicillin 10 µM, negative control, n = 8, before drug 0.490 s): 0.500 s | Mean QTc interval duration, After ([2]; penicillin 30 µM, negative control, n = 8, before drug 0.494 s): 0.503 s | Mean QTc interval duration, After ([2]; penicillin 50 µM, negative control, n = 8, before drug 0.489 s): 0.488 s | Mean QTc interval duration, After ([2]; penicillin 100 µM, negative control, n = 8, before drug 0.506 s): 0.508 s | Mean QTc interval duration, After ([2]; penicillin 200 µM, negative control, n = 8, before drug 0.478 s): 0.483 s | Mean QTc interval duration, After ([2]; penicillin 300 µM, negative control, n = 8, before drug 0.457 s): 0.454 s | Mean QTc interval duration, After ([2]; penicillin 400 µM, negative control, n = 8, before drug 0.514 s): 0.507 s | Mean QTc interval duration, After ([2]; penicillin 1000 µM, negative control, n = 8, before drug 0.511 s): 0.501 s

CC(C)(C)c1ccc(C(O)CCCN2CCC(C(O)(c3ccccc3)c3ccccc3)CC2)cc1 (stereo not drawn) [terfenadine]
Metabolism in zebrafish larvae [3]: almost completely metabolised to azacyclone and terfenadine alcohol | Arrhythmia, ECG screenshot ([2]; 50 µM terfenadine, after 40 minutes of treatment, 3 dpf larva): arrhythmic phenotype with the presence of ectopic beats | AV block ([2]; 3 dpf larvae): 2∶1 AV block | AV block ([2]; 3 dpf larvae, listed as Terfenadine): induced an atrioventricular (AV) block | Arrhythmia development ([2]; time and concentration-dependent, 3 dpf larvae): development of an arrhythmia

O=C(CCCN1CCC(O)(c2ccc(Cl)cc2)CC1)c1ccc(F)cc1 [haloperidol]
Effect on QTc interval (in words) [2]: apparent QT prolongation, which was found to be similar at various concentrations | AV block ([2]; 3 dpf larvae): induced an atrioventricular (AV) block and 2∶1 AV block | Mean QTc interval duration, After ([2]; haloperidol 50 µM, n = 8, before drug 0.499 s): 0.586 s | Mean QTc interval duration, After ([2]; haloperidol 100 µM, n = 8, before drug 0.511 s): 0.603 s | Mean QTc interval duration, After ([2]; haloperidol 200 µM, n = 8, before drug 0.504 s): 0.593 s | Mean QTc interval duration, After ([2]; haloperidol 300 µM, n = 8, before drug 0.480 s): 0.576 s

COc1cc2c3cc1Oc1cc(ccc1O)C[C@@H]1c4c(cc(OC)c(O)c4Oc4ccc(cc4)C[C@@H]3N(C)CC2)CC[N+]1(C)C [tubocurarine]
Effect on heart rate (ƒH) [2]: did not affect ƒH at any of the tested concentrations | Mean interval duration QT [2, 4]: 0.3263 s | Mean interval duration QTc [2, 4]: 0.4733 s | Mean interval duration RR [2, 4]: 0.4755 s | Mean interval duration QT [2, 5]: 0.3306 s | Mean interval duration QTc [2, 5]: 0.4755 s | Mean interval duration RR [2, 5]: 0.4863 s

CCOC(=O)c1cccc(N)c1.CS(=O)(=O)O [MESAB, ethyl-3 aminobenzoate methanesulfonate]
Mean interval duration QT [2, 6]: 0.3428 s | Mean interval duration QTc [2, 6]: 0.4944 s | Mean interval duration RR [2, 6]: 0.4798 s | Mean interval duration QT [2, 7]: 0.3614 s | Mean interval duration QTc [2, 7]: 0.5049 s | Mean interval duration RR [2, 7]: 0.5123 s | Mean interval duration QT [2, 8]: 0.3515 s | Mean interval duration QTc [2, 8]: 0.5012 s | Mean interval duration RR [2, 8]: 0.4917 s | Mean interval duration QT [2, 9]: 0.3656 s | Mean interval duration QTc [2, 9]: 0.5133 s | Mean interval duration RR [2, 9]: 0.5517 s | Effect on R-R interval ([2]; MESAB at high concentrations (1 mg/ml), P<0.05): increase of the R-R interval | Effect on heart rate (ƒH) [2]: induced bradycardia

CC1(C)Oc2ccc(C#N)cc2C(N2CCCC2=O)C1O (stereo not drawn) [cromakalim]
Effect on QTc interval (in words) [2]: no perturbation to the QTc interval | Mean QTc interval duration, After ([2]; cromakalim 10 µM, n = 5, before drug 0.458 s): 0.461 s | Mean QTc interval duration, After ([2]; cromakalim 25 µM, n = 5, before drug 0.459 s): 0.460 s | Mean QTc interval duration, After ([2]; cromakalim 50 µM, n = 5, before drug 0.469 s): 0.464 s | Mean QTc interval duration, After ([2]; cromakalim 100 µM, n = 5, before drug 0.453 s): 0.449 s | Mean QTc interval duration, After ([2]; cromakalim 200 µM, n = 5, before drug 0.476 s): 0.476 s | Mean QTc interval duration, After ([2]; cromakalim 300 µM, n = 5, before drug 0.475 s): 0.472 s | Mean QTc interval duration, After ([2]; cromakalim 400 µM, n = 5, before drug 0.468 s): 0.474 s | Effect on contraction of cardiomyocytes / myocardial contractility [1]: did not reduce contraction of cardiomyocytes

O=c1[nH]c2ccccc2n1C1CCN(CCCC(c2ccc(F)cc2)c2ccc(F)cc2)CC1 [pimozide]
Effect on QTc interval (in words) [2]: statistically significant increase in the corrected QT interval | AV block ([2]; 3 dpf larvae): induced an atrioventricular (AV) block | Mean QTc interval duration, After ([2]; pimozide 50 µM, n = 8, before drug 0.491 s): 0.629 s | Mean QTc interval duration, After ([2]; pimozide 100 µM, n = 8, before drug 0.470 s): 0.610 s

Cc1ccc2c(c1)C(=O)C1(O)CCN(c3ccccc3)C1=N2 (stereo not drawn) [blebbistatin]
Adverse effects on ECG and embryo survival [1]: adverse effects on the ECG and embryo survival | Effect on contraction of cardiomyocytes / myocardial contractility [1]: completely remove myocardial contractility

COc1ccc(CCN(C)CCCC(C#N)(c2ccc(OC)c(OC)c2)C(C)C)cc1OC (stereo not drawn) [verapamil]
Effect on QTc interval (in words) [2]: increased the QTc interval | Mean QTc interval duration, After ([2]; verapamil 10 µM, n = 8, before drug 0.482 s): 0.486 s | Mean QTc interval duration, After ([2]; verapamil 25 µM, n = 8, before drug 0.478 s): 0.484 s | Mean QTc interval duration, After ([2]; verapamil 50 µM, n = 8, before drug 0.471 s): 0.529 s | Mean QTc interval duration, After ([2]; verapamil 100 µM, n = 8, before drug 0.473 s): 0.578 s | Mean QTc interval duration, After ([2]; verapamil 200 µM, n = 8, before drug 0.484 s): 0.591 s | Mean QTc interval duration, After ([2]; verapamil 300 µM, n = 8, before drug 0.477 s): 0.622 s | Mean QTc interval duration, After ([2]; verapamil 400 µM, n = 8, before drug 0.481 s): 0.609 s | Mean QTc interval duration, After ([2]; verapamil 1000 µM, n = 8, before drug 0.466 s): 0.616 s
